Reference: paper PMC3459575 (Clinical Interventions in Aging, 2012)

What was measured:
[1] = molecular target: T1, 5α-reductase type 2 (Homo sapiens, UniProt P31213); assay type: cell-based
T1 sequence (P31213 1-254): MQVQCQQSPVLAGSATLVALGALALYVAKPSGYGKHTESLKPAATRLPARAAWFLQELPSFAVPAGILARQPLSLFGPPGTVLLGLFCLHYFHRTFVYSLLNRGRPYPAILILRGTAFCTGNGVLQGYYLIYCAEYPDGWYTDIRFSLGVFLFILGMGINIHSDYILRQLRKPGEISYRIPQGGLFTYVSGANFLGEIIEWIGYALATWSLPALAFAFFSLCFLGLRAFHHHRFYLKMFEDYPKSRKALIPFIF

[2] = molecular target: T2, 5α-reductase type 1 (Homo sapiens, UniProt P18405); assay type: cell-based
T2 sequence (P18405 1-259): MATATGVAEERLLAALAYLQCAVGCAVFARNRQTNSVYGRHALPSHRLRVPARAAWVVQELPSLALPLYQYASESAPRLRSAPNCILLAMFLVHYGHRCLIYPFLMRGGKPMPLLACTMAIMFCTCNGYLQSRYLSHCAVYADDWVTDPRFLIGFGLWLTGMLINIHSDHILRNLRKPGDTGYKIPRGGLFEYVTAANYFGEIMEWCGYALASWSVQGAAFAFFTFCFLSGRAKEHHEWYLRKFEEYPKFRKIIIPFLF

## CC(C)(C)NC(=O)[C@H]1CC[C@H]2[C@@H]3CC[C@H]4NC(=O)C=C[C@]4(C)[C@H]3CC[C@]12C [finasteride]
[1]
  IC50: ~100 nM
[2]
  IC50: ~800 nM
